Experimental data reported in patent US9302999B2, “Substituted triazoles as herbicides” (E. I. DU PONT DE NEMOURS AND COMPANY, priority 2012, dated 2016).

Assays:
Format in all cases: in vivo
[1] = system: barnyardgrass (Echinochloa crus-galli); experiment: Test F pre-/postemergence: barnyardgrass
Description: (§1) Seeds of plant species selected from corn (Zea mays), soybean (Glycine max), velvetleaf (Abutilon theophrasti), lambsquarters (Chenopodium album), poinsettia, wild (wild poinsettia, Euphorbia heterophylla), pigweed, palmer (palmer pigweed, Amaranthus palmeri), waterhemp (common waterhemp, Amaranthus rudis), surinam grass (Brachiaria decumbens), crabgrass, Brazil (Brazilian crabgrass, Digitaria horizontalis), panicum, fall (fall panicum Panicum dichotomiflorum), crabgrass, large (large crabgrass, Digitaria sanguinalis), foxtail, giant (giant foxtail, Setaria faberii), foxtail, green (green foxtail Setaria viridis), goosegrass (Eleusine indica), ragweed (common ragweed, Ambrosia elatior), barnyardgrass (Echinochloa crus-galli), sandbur (southern sandbur, Cenchrus echinatus), arrowleaf sida (Sida rhombifolia), ryegrass, Italian (Italian ryegrass, Lolium multiflorum), dayflower, VA (Virginia (VA) dayflower, Commelina virginica), field bindweed (Convolvulus arvensis), cocklebur (common cocklebur, Xanthium strumarium), morningglory (Ipomoea coccinea), nightshade (eastern black nightshade, Solanum ptycanthum), kochia (Kochia scoparia), nutsedge, yellow (yellow nutsedge, Cyperus esculentus), johnsongrass (Sorghum halepense), smartweed (ladysthumb smartweed, Polygonum persicaria), and beggarticks (hairy beggarticks, Bidens pilosa), were planted into a silt loam soil and treated preemergence with test chemicals formulated in a non-phytotoxic solvent mixture which included a surfactant. At the same time, plants selected from these crop and weed species and also pigweed (Amaranthus retroflexus), waterhemp_RES1 (ALS/Triazine resistant common waterhemp, Amaranthus rudis) and waterhemp_RES2 (ALS/HPPD resistant common waterhemp, Amaranthus rudis) were planted in pots containing a planting medium comprising spaghnum peat moss, vermiculite, wetting agent and starter nutrients treated with postemergence applications of some of the test chemicals formulated in the same manner. Plants ranged in height from 2 to 18 cm for postemergence treatments (1- to 4-leaf stage).
(§2) Treated plants and controls were maintained in a greenhouse for 14 to 21 days, after which time all species were compared to controls and visually evaluated. Plant response ratings, summarized in Table E, are based on a scale of 0 to 100 where 0 is no effect and 100 is complete control. A dash (-) response means no test result.

[2] = system: nightshade (eastern black nightshade, Solanum ptycanthum); experiment: Test F pre-/postemergence: nightshade; details: Preemergence
Description: as §1, §2

[3] = system: crabgrass, large (large crabgrass, Digitaria sanguinalis); experiment: Test F pre-/postemergence: crabgrass, large; details: Preemergence
Description: as §1, §2

[4] = system: beggarticks (hairy beggarticks, Bidens pilosa); experiment: Test F pre-/postemergence: beggarticks
Description: as §1, §2

[5] = Preemergence, 16 g ai/ha, scale 0 to 100, 0 no effect, 100 complete control
[6] = Preemergence, 31 g ai/ha, scale 0 to 100, 0 no effect, 100 complete control
[7] = Preemergence, 62 g ai/ha, scale 0 to 100
[8] = Preemergence, 125 g ai/ha, scale 0 to 100
[9] = Preemergence, 250 g ai/ha, scale 0 to 100
[10] = 16 g ai/ha, scale 0 to 100, 0 no effect, 100 complete control
[11] = 31 g ai/ha, scale 0 to 100, 0 no effect, 100 complete control
[12] = Postemergence, 8 g ai/ha, scale 0 to 100
[13] = Postemergence, 16 g ai/ha, scale 0 to 100
[14] = Postemergence, 31 g ai/ha, scale 0 to 100
[15] = Postemergence, 62 g ai/ha, scale 0 to 100
[16] = Postemergence, 125 g ai/ha, scale 0 to 100
[17] = Postemergence, 250 g ai/ha, scale 0 to 100

| Compound | Plant response rating, Barnyardgrass [1, 5] | Plant response rating, Barnyardgrass [1, 6] | Plant response rating, Barnyardgrass [1, 7] | Plant response rating, Barnyardgrass [1, 8] | Plant response rating, Barnyardgrass [1, 9] | Plant response rating, Nightshade [2, 10] | Plant response rating, Nightshade [2, 11] | Plant response rating, Nightshade ([2]; 125 g ai/ha, scale 0 to 100) | Plant response rating, Nightshade ([2]; 250 g ai/ha, scale 0 to 100) | Plant response rating, Crabgrass, Large [3, 10] | Plant response rating, Crabgrass, Large [3, 11] | Plant response rating, Crabgrass, Large ([3]; 62 g ai/ha, scale 0 to 100) | Plant response rating, Crabgrass, Large ([3]; 125 g ai/ha, scale 0 to 100) | Plant response rating, Crabgrass, Large ([3]; 250 g ai/ha, scale 0 to 100) | Plant response rating, Beggarticks [4, 5] | Plant response rating, Beggarticks [4, 6] | Plant response rating, Beggarticks [4, 7] | Plant response rating, Beggarticks [4, 8] | Plant response rating, Beggarticks [4, 9] | Plant response rating, Barnyardgrass [1, 14] | other results |
| --- | --- | --- | --- | --- | --- | --- | --- | --- | --- | --- | --- | --- | --- | --- | --- | --- | --- | --- | --- | --- | --- |
| COc1nn(-c2cccc(F)c2)nc1Cc1ccnc(C(F)(F)F)c1 [Compound 139] | 0 | 10 | 10 | 10 | 98 | 20 | 35 | 100 | 100 | 30 | 95 | 95 | 100 | 100 | 0 | 0 | 0 | 0 | 0 | – | – |
| Cc1nn(-c2ccnc(Cl)c2)nc1Cc1ccnc(C(F)(F)F)c1 [Compound 141] | – | – | – | – | – | – | – | – | – | – | – | – | – | – | – | – | – | – | – | 20 | Plant response rating, Barnyardgrass [1, 12]: 10; Plant response rating, Barnyardgrass [1, 13]: 20; Plant response rating, Barnyardgrass [1, 15]: 30; Plant response rating, Barnyardgrass [1, 16]: 40; Plant response rating, Beggarticks [4, 12]: 40; Plant response rating, Beggarticks [4, 13]: 40; Plant response rating, Beggarticks [4, 14]: 50; Plant response rating, Beggarticks [4, 15]: 60; Plant response rating, Beggarticks [4, 16]: 75 |
| Cc1nn(-c2ccc(F)cc2F)nc1Oc1ccnc(C(F)(F)F)c1 [Compound 146] | 0 | 0 | 10 | 10 | 20 | 0 | 10 | 65 | 100 | 0 | 75 | 98 | 98 | 100 | 0 | 0 | 0 | 0 | 0 | – | – |
| CCc1nn(-c2ccc(F)cc2)nc1Cc1ccnc(C(F)(F)F)c1 [Compound 154] | 0 | 5 | 85 | 90 | 100 | 0 | 10 | 90 | 100 | 50 | 98 | 100 | 100 | 100 | 0 | 0 | 0 | 0 | 15 | – | – |
| CCc1nn(-c2ccc(C(F)(F)F)cc2)nc1Oc1ccnc(C(F)(F)F)c1 [Compound 169] | 0 | 0 | 20 | 60 | 95 | 0 | 80 | 100 | 100 | 98 | 98 | 100 | 100 | 100 | 0 | 0 | 0 | 5 | 5 | 0 | Plant response rating, Barnyardgrass [1, 17]: 40; Plant response rating, Barnyardgrass [1, 13]: 0; Plant response rating, Barnyardgrass [1, 15]: 15; Plant response rating, Barnyardgrass [1, 16]: 25; Plant response rating, Beggarticks [4, 17]: 40; Plant response rating, Beggarticks [4, 13]: 25; Plant response rating, Beggarticks [4, 14]: 25; Plant response rating, Beggarticks [4, 15]: 25; Plant response rating, Beggarticks [4, 16]: 30 |
| CCc1nn(-c2ccc(F)c(F)c2)nc1Oc1ccnc(C(F)(F)F)c1 [Compound 171] | 0 | 5 | 5 | 80 | 100 | 0 | 0 | 5 | 5 | 75 | 98 | 98 | 100 | 100 | 0 | 0 | 0 | 0 | 0 | – | – |
| CCCc1nn(-c2ccc(F)c(F)c2)nc1Oc1ccnc(C(F)(F)F)c1 [Compound 172] | – | 70 | – | 100 | 100 | – | 5 | 100 | 100 | – | 100 | – | 100 | 100 | – | 15 | – | 25 | 25 | 20 | Plant response rating, Barnyardgrass [1, 17]: 85; Plant response rating, Barnyardgrass [1, 16]: 50; Plant response rating, Beggarticks [4, 17]: 60; Plant response rating, Beggarticks [4, 14]: 40; Plant response rating, Beggarticks [4, 16]: 50 |
